Test system: IFNα-induced pSTAT5 (pY694) in CD3 positive cells of human whole blood
Test: IFNα-Induced STAT Phosphorylation in Human Whole Blood
Assay type: cell-based
Settings: 1 h compound incubation, 1000 U/mL recombinant human IFNα A/D for 15 min, pSTAT5 in CD3 positive population, read-out: Human WB IFNα-Induced Stat Phosph. (IC50)
In short: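 Read-out is median fluorescence intensity of pSTAT5 (pY694) in the CD3-positive gate, by flow cytometry after fix/lyse and permeabilization. Before that, whole human blood anticoagulated with EDTA or ACD-A received compound for an hour and 1000 U/mL IFNα A/D for 15 min.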

Question: With `[2H]C([2H])([2H])NC(=O)c1nnc(NC(=O)C2CC2)cc1Nc1cccc(-c2cnn(CCNC(C)=O)c2)c1OC` [Example 563, 4-((3-(1-(2-acetamidoethyl)-1H-pyrazol-4-yl)-2-methoxyphenyl)amino)-6-(cyclopropanecarboxamido)-N-(methyl-d3)pyridazine-3-carboxamide] as the compound, how does the IC50 read?
Answer: 3120 nM

Same assay, conditions: Homo sapiens, 1 h compound incubation, 1000 U/mL recombinant human IFNα A/D for 15 min, pSTAT5 in CD3 positive population, read-out: Human WB IFNα-Induced Stat Phosph. (IC50)

Question: For `[2H]C([2H])([2H])NC(=O)c1nnc(NC(=O)C2CC2)cc1Nc1cccc(-c2cnn(CC(=O)NCC(CC)CC)n2)c1OC` [Example 428], which IC50 is on record?
Answer: 2630 nM

Question: How did the IC50 turn out when `[2H]C([2H])([2H])NC(=O)c1nnc(NC(=O)C2CC2)cc1Nc1cccc(-c2noc(CN3CCOC3=O)n2)c1OC` [Example 77] was run?
Answer: 40 nM

Question: How did the IC50 turn out when `[2H]C([2H])([2H])NC(=O)c1nnc(NC(=O)C2CC2)cc1Nc1cccc(-c2ncc(C(=O)NCC(C)N3CCCCC3)s2)c1OC` (stereo not shown) [Example 349] was run?
Answer: 70 nM

Question: How did the IC50 turn out when `[2H]C([2H])([2H])NC(=O)c1nnc(Nc2cnn(C)n2)cc1Nc1cccc(-c2ncc(C(=O)N(C)C)s2)c1OC` [Example 381] was run?
Answer: 130 nM

Question: `[2H]C([2H])([2H])NC(=O)c1nnc(NC(=O)C2CC2)cc1Nc1cccc(-c2nc(CN3CCS(=O)(=O)CC3)no2)c1OC` [Example 164] was tested. Which IC50 did it give?
Answer: 200 nM

Question: How did the IC50 turn out when `[2H]C([2H])([2H])NC(=O)c1cnc(NC(=O)C2CC2)cc1Nc1cccc(-c2csc(C(=O)NCCOC)n2)c1OC` [Example 569] was run?
Answer: 590 nM

Question: Which IC50 does the source give for `[2H]C([2H])([2H])NC(=O)c1nnc(NC(=O)C2CC2)cc1Nc1cccc(-c2noc(CCC(=O)NCCC3CCCN3C)n2)c1OC` (stereo not shown) [Example 26] here?
Answer: 3900 nM

Question: `COc1c(Nc2cc(NC(=O)C3CC3)nnc2C(N)=O)cccc1-c1ncc(CN2CCN(S(C)(=O)=O)CC2)s1` [Example 395] was tested. Which IC50 did it give?
Answer: 80 nM

Question: `[2H]C([2H])([2H])NC(=O)c1nnc(NC(=O)C2CC2)cc1Nc1cccc(-c2cc(C(=O)NCCCOC)n(C)n2)c1OC` [Example 527] was tested. Which IC50 did it give?
Answer: 950 nM

Question: With `COc1c(Nc2cc(NC(=O)C3CC3)nnc2C(N)=O)cccc1-c1noc(CN(C(C)C)S(C)(=O)=O)n1` [Example 61] as the compound, how does the IC50 read?
Answer: 60 nM

Question: How did the IC50 turn out when `[2H]C([2H])([2H])NC(=O)c1nnc(NC(=O)C2CC2)cc1Nc1cccc(-c2nc(C3(NC(=O)COC)CC3)no2)c1OC` [Example 149] was run?
Answer: 1950 nM

Question: Which IC50 does the source give for `[2H]C([2H])([2H])NC(=O)c1nnc(NC(=O)C2CC2)cc1Nc1cccc(-c2noc(C(=O)NCCC3CCCN3C)n2)c1OC` (stereo not shown) [Example 21] here?
Answer: 22 nM

Question: With `COc1c(Nc2cc(NC(=O)C3CC3)nnc2C(N)=O)cccc1-c1ncc(CN2CCOCC2)s1` [Example 401] as the compound, how does the IC50 read?
Answer: 180 nM

Question: How did the IC50 turn out when `COc1c(Nc2cc(NC(=O)C3CC3)nnc2C(N)=O)cccc1-c1ncc(C(=O)N2CCC(CO)CC2)o1` [Example 418] was run?
Answer: 130 nM

Question: For `[2H]C([2H])([2H])NC(=O)c1nnc(Nc2cc(C)n(C)n2)cc1Nc1cccc(-c2ncc(C(=O)N3CCS(=O)(=O)CC3)s2)c1OC` [Example 382], which IC50 is on record?
Answer: 100 nM

Question: `[2H]C([2H])([2H])NC(=O)c1nnc(NC(=O)C2CC2)cc1Nc1cccc(-c2cnn(CCNS(C)(=O)=O)c2)c1OC` [Example 560] was tested. Which IC50 did it give?
Answer: 2210 nM

Question: For `[2H]C([2H])([2H])NC(=O)c1nnc(NC(=O)C2CC2)cc1Nc1cccc(-c2nc([C@@H](N)CO)no2)c1OC` [Example 201], which IC50 is on record?
Answer: 290 nM

Question: How did the IC50 turn out when `[2H]C([2H])([2H])NC(=O)c1nnc(NC(=O)C2CC2)cc1Nc1cccc(-c2ncc(C(=O)N3CCC[C@H]3CO)s2)c1OC` [Example 302] was run?
Answer: 110 nM

Question: For `[2H]C([2H])([2H])NC(=O)c1nnc(NC(=O)C2CC2)cc1Nc1cccc(-c2nc(CN3CC4CNCC4C3)no2)c1OC` (stereo not shown) [Example 232], which IC50 is on record?
Answer: 6510 nM

Question: With `[2H]C([2H])([2H])NC(=O)c1nnc(NC(=O)C2CC2)cc1Nc1cccc(-c2nc(CN(C)C(C)=O)no2)c1OC` [Example 173] as the compound, how does the IC50 read?
Answer: 300 nM

Question: How did the IC50 turn out when `[2H]C([2H])([2H])NC(=O)c1nnc(NC(=O)C2CC2)cc1Nc1cccc(-c2nc(CN3CCN(C(=O)CC#N)CC3=O)no2)c1OC` [Example 139] was run?
Answer: 410 nM

Question: With `[2H]C([2H])([2H])NC(=O)c1nnc(NC(=O)C2CC2)cc1Nc1cccc(-c2ncc(C(=O)N3CCC(CCOC)CC3)s2)c1OC` [Example 325] as the compound, how does the IC50 read?
Answer: 110 nM

Question: How did the IC50 turn out when `[2H]C([2H])([2H])NC(=O)c1nnc(NC(=O)C2CC2)cc1Nc1cccc(-c2cc(C(=O)NC(COC)COC)n(C)n2)c1OC` [Example 540] was run?
Answer: 460 nM

Question: `COc1c(Nc2cc(NC(=O)C3CC3)nnc2C(N)=O)cccc1-c1noc(CNS(=O)(=O)c2ccccc2)n1` [Example 13] was tested. Which IC50 did it give?
Answer: 24 nM

Question: How did the IC50 turn out when `[2H]C([2H])([2H])NC(=O)c1nnc(Nc2cc(C)n(C)n2)cc1Nc1cc(F)cc(-c2cc(C(C)(C)O)n(C)n2)c1OC` [Example 546] was run?
Answer: 110 nM

Question: For `[2H]C([2H])([2H])NC(=O)c1cnc(NC(=O)C2CC2)cc1Nc1cccc(-c2nc(CO)no2)c1OC` [Example 217], which IC50 is on record?
Answer: 180 nM

Question: For `[2H]C([2H])([2H])NC(=O)c1nnc(NC(=O)C2CC2)cc1Nc1cccc(-c2cnn(CCNC(=O)COC)c2)c1OC` [Example 562], which IC50 is on record?
Answer: 650 nM

Question: How did the IC50 turn out when `[2H]C([2H])([2H])NC(=O)c1nnc(NC(=O)C2CC2)cc1Nc1cc(F)cc(-c2cc(C(=O)N3CCS(=O)(=O)CC3)n(C)n2)c1OC` [Example 503] was run?
Answer: 860 nM

Question: For `[2H]C([2H])([2H])NC(=O)c1nnc(Nc2cc(C(C)(C)O)ccn2)cc1Nc1cc(F)cc(-c2cc(C(C)(C)O)n(C)n2)c1OC` [Example 547], which IC50 is on record?
Answer: 400 nM

Question: `[2H]C([2H])([2H])NC(=O)c1nnc(NC(=O)C2CC2)cc1Nc1cccc(-c2nc([C@H](NC(C)=O)[C@H](C)O)no2)c1OC` [Example 203] was tested. Which IC50 did it give?
Answer: 460 nM

Question: With `[2H]C([2H])([2H])NC(=O)c1nnc(NC(=O)C2CC2)cc1Nc1cccc(-c2ccn(CCNC(=O)COC)n2)c1OC` [Example 469] as the compound, how does the IC50 read?
Answer: 200 nM

Question: With `[2H]C([2H])([2H])NC(=O)c1nnc(NC(=O)C2CC2)cc1Nc1cccc(-c2nc([C@H](CO)NC(C)=O)no2)c1OC` [Example 199] as the compound, how does the IC50 read?
Answer: 1080 nM

Question: With `[2H]C([2H])([2H])NC(=O)c1nnc(Nc2ccc(C)nn2)cc1Nc1cccc(-c2ncc(C(=O)N3CCS(=O)(=O)CC3)s2)c1OC` [Example 383] as the compound, how does the IC50 read?
Answer: 30 nM

Question: For `[2H]C([2H])([2H])NC(=O)c1nnc(NC(=O)C2CC2)cc1Nc1cccc(-c2nc(CNC(=O)OC(C)(C)C)no2)c1OC` [Example 142], which IC50 is on record?
Answer: 5310 nM

Question: How did the IC50 turn out when `[2H]C([2H])([2H])NC(=O)c1nnc(NC(=O)C2CC2)cc1Nc1cccc(-c2cc(C(=O)NCCC3CCCN3C)n(C)n2)c1OC` (stereo not shown) [Example 533] was run?
Answer: 530 nM

Question: With `[2H]C([2H])([2H])NC(=O)c1nnc(NC(=O)C2CC2)cc1Nc1cccc(-c2ncc(C(=O)N3CCS(=O)(=O)CC3)s2)c1OC` [Example 273] as the compound, how does the IC50 read?
Answer: 70 nM

Question: With `[2H]C([2H])([2H])NC(=O)c1nnc(NC(=O)C2CC2)cc1Nc1cccc(-c2nc([C@@H](C)NC(C)=O)no2)c1OC` [Example 194] as the compound, how does the IC50 read?
Answer: 160 nM

Question: With `[2H]C([2H])([2H])NC(=O)c1nnc(NC(=O)C2CC2)cc1Nc1cccc(-c2nc(CNC(=O)CN(C)C)no2)c1OC` [Example 147] as the compound, how does the IC50 read?
Answer: 1720 nM

Question: How did the IC50 turn out when `[2H]C([2H])([2H])NC(=O)c1cnc(NC(=O)C2CC2)cc1Nc1cccc(-c2cnn(CCNC(=O)CC#N)n2)c1OC` [Example 440] was run?
Answer: 1160 nM

Question: How did the IC50 turn out when `[2H]C([2H])([2H])NC(=O)c1nnc(NC(=O)C2CC2)cc1Nc1cccc(-c2cnn(CCNC(=O)CC#N)n2)c1OC` [Example 435] was run?
Answer: 260 nM

Question: How did the IC50 turn out when `[2H]C([2H])([2H])NC(=O)c1nnc(NC(=O)C2CC2)cc1Nc1cccc(-c2noc(C(=O)N3CCS(=O)(=O)CC3)n2)c1OC` [Example 20] was run?
Answer: 1500 nM

Question: With `[2H]C([2H])([2H])NC(=O)c1nnc(NC(=O)C2CC2)cc1Nc1cccc(-c2ncc(C(=O)NCCC(=O)OC)s2)c1OC` [Example 290] as the compound, how does the IC50 read?
Answer: 100 nM

Reference: patent US12240840B2, “Amide-substituted heterocyclic compounds for the treatment of conditions related to the modulation of IL-12, IL-23 and/or IFN-alpha” (BRISTOL-MYERS SQUIBB COMPANY, priority 2018, dated 2025)
